Laboratory results taken from publication PMC4544630, “Contribution of C-glucosidic ellagitannins to Lythrum salicaria L. influence on pro-inflammatory functions of human neutrophils” (Journal of Natural Medicines, 2014).

Assays:
[1] = test system: ROS; test: ROS release from f-MLP-stimulated neutrophils, luminol chemiluminescence; assay type: cell-based, human; details: % of stimulated control
Excerpt: (§1) Peripheral venous blood was taken from healthy human donors (20–35 years old) in the Warsaw Blood Donation Centre. […] The study conformed to the principles of the Declaration of Helsinki. Neutrophils were isolated using a standard method of dextran sedimentation prior to hypotonic lysis of erythrocytes and to centrifugation in a Ficoll Hypaque gradient. The purity of neutrophil preparations was >97 %, and viability measured by trypan blue exclusion was >98 %. Neutrophils were then resuspended in appropriate medium to perform the selected assay.
(§2) Generation of oxidants by f-MLP or PMA-stimulated neutrophils was measured using luminol- or lucigenin-dependent chemiluminescence tests. 70 μL of cell suspension (2 × 10^5/mL) in HBSS was incubated with 50 μL of compound or extract solution (final concentrations of 1, 5 and 20 μM or μg/mL) together with 50 μL of luminol (100 μM) or lucigenin (200 μM) solution. ROS production was initiated by the addition of 30 μL of f-MLP (0.1 μg/mL) or PMA (1 μg/mL). Changes in chemiluminescence at 37 °C were measured immediately for 45 min at intervals of 2 min in a microplate reader (Biotek). Ascorbic acid was used as a positive control.

[2] = test system: MPO; test: MPO release from cytochalasin A/f-MLP-stimulated neutrophils (TMB substrate); assay type: cell-based, human; details: cytochalasin A/f-MLP, % of stimulated control
Excerpt: Peripheral venous blood was taken from healthy human donors (20-35 years old) in the Warsaw Blood Donation Centre. […] The study conformed to the principles of the Declaration of Helsinki. Neutrophils were isolated using a standard method of dextran sedimentation prior to hypotonic lysis of erythrocytes and to centrifugation in a Ficoll Hypaque gradient. The purity of neutrophil preparations was >97 %, and viability measured by trypan blue exclusion was >98 %. Neutrophils were then resuspended in appropriate medium to perform the selected assay. Neutrophil MPO release was determined using TMB as a substrate. […] After centrifugation (2000 rpm; 10 min; 4 °C), 100 μL of supernatant was incubated with 50 μL of the TMB liquid substrate system. The reaction was terminated after 20 min by the addition of 2 M hydrochloric acid. The absorbance was measured at […] using a microplate reader (BioTek). Gallic acid was used as a positive control, according to Kroes et al..

[3] = test system: elastase; test: Elastase release from cytochalasin A/f-MLP-stimulated neutrophils (SAAVNA substrate); assay type: cell-based, human; details: % of stimulated control
Excerpt: as §1
Neutrophil elastase release was determined using SAAVNA as a substrate, and […] was measured spectrophotometrically. 100 μL of cell suspension (5 × 10^5/mL) in HBSS was preincubated with 50 μL of compound or extract solution (final concentrations of 1, 5 and 20 μM or μg/mL) for 15 min at 37 °C and then stimulated with 50 μL of cytochalasin A (5 μg/mL) and f-MLP (0.1 μg/mL) for 15 min. The neutrophils were centrifuged (2000 rpm; 10 min; 4 °C). After the addition of 50 μL of SAAVNA solution (1.6 mg/mL) to 100 μL of supernatant, the extent of […] was measured spectrophotometrically for 1 h at intervals of 20 min, at 412 nm using a microplate reader (BioTek). According to Kanashiro et al., quercetin was used as a positive control.

[4] = test system: ROS; test: ROS release from PMA-stimulated neutrophils, lucigenin chemiluminescence; assay type: cell-based, human; details: PMA + lucygenin, % of stimulated control
Excerpt: as §1, §2

[5] = test system: IL-8; test: IL-8 production by LPS-stimulated neutrophils (ELISA); assay type: cell-based, human; details: LPS 100 ng/mL, 24 h, % of stimulated control
Excerpt: as §1
(§3) Neutrophils (2 × 10^5/mL) were cultured in 24-well plates in RPMI 1640 medium with 10 % FBS, 10 mM HEPES, and 2 mM L-glutamine in the absence or presence of LPS (100 ng/mL) for 24 h at 37 °C with 5 % CO2 in the absence or presence of extract at concentrations of 1, 5 and 20 μg/mL, and compounds at concentrations of 1, 5 and 20 μM were added to 1 mL of cell suspension 1 h before the stimuli. After 24 h, the neutrophils were harvested and centrifuged (2000 RPM; 10 min; 4 °C). The amount of IL-8 or MMP-9 released into cell supernatants was measured by enzyme-linked immunosorbent assay (ELISA) following the manufacturer’s instructions (R&D Systems, Minneapolis, MN, USA). PBS was used as a non-stimulated control. Curcumin was used as a positive control, according to Aggarwal and Harikumar and Antoine et al..

[6] = molecular target: T1, bovine testis hyaluronidase (Bos taurus, UniProt Q2YDK3); test: Hyaluronidase activity, USP turbidimetric method modified; assay type: biochemical; details: for Hyaluronidase activity Mean(%): % of 100% active enzyme control
T1 construct: purchased Sigma–Aldrich GmbH (Steinheim, Germany); host or cells: bovine testis
T1 sequence (Q2YDK3 36-553): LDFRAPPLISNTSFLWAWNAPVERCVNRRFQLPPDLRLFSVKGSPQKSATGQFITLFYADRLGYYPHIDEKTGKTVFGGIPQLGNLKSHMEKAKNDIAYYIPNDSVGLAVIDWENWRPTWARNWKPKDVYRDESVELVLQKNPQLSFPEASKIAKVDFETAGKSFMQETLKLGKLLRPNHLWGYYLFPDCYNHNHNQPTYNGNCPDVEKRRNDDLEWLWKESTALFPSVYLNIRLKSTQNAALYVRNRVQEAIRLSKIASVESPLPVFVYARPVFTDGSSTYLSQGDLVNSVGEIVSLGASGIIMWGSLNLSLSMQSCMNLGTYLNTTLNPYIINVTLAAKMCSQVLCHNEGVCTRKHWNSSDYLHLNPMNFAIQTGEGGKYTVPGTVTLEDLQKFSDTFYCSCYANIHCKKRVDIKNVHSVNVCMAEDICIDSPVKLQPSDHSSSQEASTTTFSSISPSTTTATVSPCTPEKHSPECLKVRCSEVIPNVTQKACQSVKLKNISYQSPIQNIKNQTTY
Excerpt: The […] flowering herb was collected from its natural habitat in Umer in the Świętokrzyskie region (Poland) in July 2011. Its identity was confirmed anatomically and morphologically based on its pharmacopoeial monograph in the Department of Pharmacognosy and Molecular Basis of Phytotherapy, Medical University of Warsaw, where the voucher specimen UMER2011 is deposited. […] […]), castalagin ([…] (SB) and […]. 1, 2) from […] performed according to Piwowarski and Kiss. […] Isolated ellagitannins were of >95 % purity (determined by the HPLC-DAD-CAD method). […] Gallic acid (>96 % purity) was purchased from ChromaDex (Santa Ana, USA). Propidium iodide was purchased from BD Biosciences (San Diego, CA, USA). All substances used were of >95 % purity. Phosphate-buffered saline (PBS) was purchased from Gibco (Carlsbad, CA, USA). The influence of extract and ellagitannins on hyaluronidase activity was measured using the USP turbidimetric method modified by Piwowarski et al. […] Heparin was used as a positive control.

[7] = test system: MMP-9; test: MMP-9 production by LPS-stimulated neutrophils (ELISA); assay type: cell-based, human; details: LPS 100 ng/mL, 24 h, % of stimulated control
Excerpt: as §1, §3

| Compound | ROS release Mean(%) ([1]; 1 μM) | ROS release Mean(%) ([1]; 5 μM) | ROS release Mean(%) ([1]; 20 μM) | MPO release Mean(%) ([2]; 1 μM) | MPO release Mean(%) ([2]; 5 μM) | MPO release Mean(%) ([2]; 20 μM) | Elastase release Mean(%) ([3]; 1 μM) | Elastase release Mean(%) ([3]; 5 μM) | Elastase release Mean(%) ([3]; 20 μM) | ROS release Mean(%) ([4]; 1 μM) | ROS release Mean(%) ([4]; 5 μM) | ROS release Mean(%) ([4]; 20 μM) | IL-8 production Mean (%) ([5]; 1 μM) | IL-8 production Mean (%) ([5]; 5 μM) | IL-8 production Mean (%) ([5]; 20 μM) | MMP-9 production Mean (%) ([7]; 1 μM) | MMP-9 production Mean (%) ([7]; 5 μM) | MMP-9 production Mean (%) ([7]; 20 μM) | other results |
| --- | --- | --- | --- | --- | --- | --- | --- | --- | --- | --- | --- | --- | --- | --- | --- | --- | --- | --- | --- |
| O=C(OC1COC(=O)c2cc(O)c(O)c(O)c2-c2c(cc(O)c(O)c2O)C(=O)OC1C1OC(=O)c2cc(O)c(O)c(O)c2-c2c(O)c(O)c(O)c3c2C(=O)OC1C3O)c1cc(O)c(O)c(O)c1Oc1cc2c(c(O)c1O)-c1c(cc(O)c(O)c1O)C(=O)OCC1OC(=O)c3cc(O)c(O)c(O)c3-c3c(O)c(O)c(O)c4c3C(=O)OC(C1OC2=O)C1OC(=O)c2c-4c(O)c(O)c(O)c2C1O (centres unmarked) [SB, salicarinin B] | 61,64% | 28,73% | 16,39% | 67,99% | 49,60% | 2,93% | 82,54% | 65,03% | 38,16% | 64,77% | 36,09% | 13,06% | 107,98% | 78,12% | 59,17% | 99,56% | 95,83% | 78,81% | IC50 [6]: 1600 ± 200 nM; Hyaluronidase activity Mean(%) ([6]; 1 μM): 70,96%; Hyaluronidase activity Mean(%) ([6]; 2 μM): 34,62%; Hyaluronidase activity Mean(%) ([6]; 5 μM): -0,07%; Hyaluronidase activity Mean(%) ([6]; 20 μM): 0,50% |
| Heparin [reference compound] |  |  |  |  |  |  |  |  |  |  |  |  |  |  |  |  |  |  | Hyaluronidase activity Mean(%) ([6]; 1 μg/mL): 100,00%; Hyaluronidase activity Mean(%) ([6]; 2 μg/mL): 96,35%; Hyaluronidase activity Mean(%) ([6]; 5 μg/mL): 89,89%; Hyaluronidase activity Mean(%) ([6]; 20 μg/mL): 82,73% |
| O=C(OC1COC(=O)c2cc(O)c(O)c(O)c2-c2c(cc(O)c(O)c2O)C(=O)OC1C1OC(=O)c2cc(O)c(O)c(O)c2-c2c(O)c(O)c(O)c3c2C(=O)OC1C3O)c1cc(O)c(O)c(O)c1Oc1cc2c(c(O)c1O)-c1c(cc(O)c(O)c1O)C(=O)OCC1OC(=O)c3cc(O)c(O)c(O)c3-c3c(O)c(O)c(O)c4c3C(=O)OC(C1OC2=O)C1OC(=O)c2c-4c(O)c(O)c(O)c2C1O (centres unmarked) [SA, salicarinin A] | 54,14% | 27,84% | 19,49% | 61,96% | 31,79% | 1,52% | 80,47% | 63,45% | 42,22% | 66,68% | 44,80% | 14,59% | 89,82% | 81,38% | 79,80% | 100,80% | 92,00% | 96,35% | IC50 [6]: 1600 ± 100 nM; Hyaluronidase activity Mean(%) ([6]; 1 μM): 75,50%; Hyaluronidase activity Mean(%) ([6]; 2 μM): 35,96%; Hyaluronidase activity Mean(%) ([6]; 5 μM): 0,50%; Hyaluronidase activity Mean(%) ([6]; 20 μM): 1,13% |
| O=C1O[C@H]([C@@H](O)CO)C(O)=C1O [VitC, ascorbic acid, reference compound] | 91,10% | 79,14% | 61,91% |  |  |  |  |  |  | 93,99% | 94,53% | 85,15% |  |  |  |  |  |  |  |
| O=C(O)c1cc(O)c(O)c(O)c1 [gal, Gallic acid, reference compound] |  |  |  | 85,62% | 58,97% | 18,88% |  |  |  |  |  |  |  |  |  |  |  |  |  |
| COc1cc(/C=C/C(=O)CC(=O)/C=C/c2ccc(O)c(OC)c2)ccc1O [Cur, curcumin, reference compound] |  |  |  |  |  |  |  |  |  |  |  |  | 112,66% | 58,75% | 26,70% | 100,14% | 64,26% | 39,26% |  |
| O=c1c(O)c(-c2ccc(O)c(O)c2)oc2cc(O)cc(O)c12 [Q, quercetin, reference compound] |  |  |  |  |  |  | 104,09% | 78,40% | 55,22% |  |  |  |  |  |  |  |  |  |  |
